According to PubChem BioAssay AID2060885 (Molecular Pharmacology Branch, DTP, NCI, 2025):

Tested on: NCI-H23 complex spheroids with HUVEC/MSC, viability
Test: Anticancer human tumor NCI-H23 cell line growth inhibition [RAS];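 as to viability, T/C: 100% = DMSO vehicle control viability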
Settings: for IC50: curve of first compound; for viability, T/C: stronger effect = lower value
Excerpt: RAS pathway inhibitors in Combinations in Complex Spheroids
A high-throughput screen of multi-cell type tumor spheroids was designed to identify active combinations of RAS pathway inhibitors and targeted small molecules. Complex spheroids include a stromal component modeled by human endothelial cells (HUVEC) and fibroblasts modeled by human mesenchymal stem cells (MSCs). The concentration ranges selected for each drug and investigational agent were based upon clinically achievable concentrations if the clinical Cmax of the agent was known.
Compounds. The drugs and investigational agents: abemaciclib (NSC768073), cobimetinib (NSC768068), divarasib (GDC6063, NSC841802), docetaxel (NSC628503), GDC-1971 (RLY-1971, NSC841576), gemcitabine (NSC613327), inavolisib (NSC800729), ipatasertib (NSC767898), KB-0742 (NSC834161), MRTX-1133 (NSC836407), osimertinib (NSC779217), RMC-4630 (NSC839698), RMC-6236 (NSC851965), RMC-6291 (NSC852671), Ro-3306 (NSC812927), sapanisertib (NSC764658), SN-38 (NSC673596), staurosporine (NSC755774), SY5609 (NSC837396), and tovorafenib (DAY101, NSC766906), were obtained from the National Cancer Institute (NCI) Developmental Therapeutics Program Chemical Repository. The FDA-approved anticancer drug set is available from the NCI Developmental Therapeutics Program. […] The stock solutions were prepared in dimethyl sulfoxide (DMSO, Sigma-Aldrich, St. Louis, MO, cat. D2650) at 800-fold the tested concentration and stored at -70 degrees C prior to their use. All drugs and investigational agents were tested over a range starting from a high concentration at or near the clinical Cmax and decreasing in half-log increments. If the clinical Cmax for an agent had not been determined, the highest concentration tested was 10 microM.
Cell Culture. All cells were maintained in an incubator at 37 degrees C and 5% CO2 with 95% humidity. The PDC lines were cultured according to standard operating procedures established by the NCI PDMR. All PDCs were thawed and cultured in Matrigel-coated flasks prepared with a working solution of 1X Ham's F-12 nutrient mix, without supplementation (Invitrogen, Waltham, MA, cat. 11765054), 100 U/mL penicillin-streptomycin (Invitrogen, cat. 15140122), and 2.5% Matrigel (Corning Inc., Corning, NY, cat. 354248) for the first three passages. The 362531-283-R-J2-PDC and 782815-120-R-J1-PDC lines were cultured in 6C/Colon 1B media, which includes advanced DMEM/F-12 (Thermo Fisher Scientific, cat. 12634028), 10 mM HEPES (Thermo Fisher Scientific, cat. 15630080), 1X GlutaMAX supplement (Thermo Fisher Scientific, cat. 35050061), 0.1 mg/mL primocin (InvivoGen, San Diego, CA, cat. ant-pm-2), 10% defined fetal bovine serum, heat inactivated (HyClone Laboratories Inc., Logan, UT, cat. SH30070.03HI), 50% L-WRN conditioned media (ATCC, cat. CRL-3276), 1.25 mM N-Acetyl-L-cysteine (Sigma-Aldrich, cat. A9165), 10 mM nicotinamide (Sigma-Aldrich, cat. N0636), 1X B-27 supplement (Thermo Fisher Scientific, cat. 17504044), 1X N-2 supplement (Thermo Fisher Scientific, cat. 17502048), 50 ng/mL human EGF (Thermo Fisher Scientific, cat. PHG0311), and 10 microM Y-27632 dihydrochloride (Tocris Bioscience, cat. 1254). The K12877-001-R-J1-PDC line was cultured in 6I media, which includes all 6C/Colon 1B media plus 10 ng/mL human FGF-10 (PeproTech, cat. 100-26), 1 ng/mL human FGF-2 (PeproTech, cat. 100-18B), 1 µM prostaglandin E2 (Tocris Bioscience, cat. 2296), […] hydrocortisone (Sigma-Aldrich, cat. H4001), and […] bovine insulin (Sigma-Aldrich, cat. I6634). The K86415-001-R-J1-PDC line was cultured in 6D media, which includes all 6C/Colon 1B media components minus the L-WRN conditioned media. The 485176-168-R4-J1-PDC was cultured in PANC media, which includes all 6C/Colon 1B media plus 100 ng/mL human FGF-10 (PeproTech, cat. 100-26), 500 nM SB-431542 (Selleckchem, cat. S1067), and 10 nM gastrin (Tocris Bioscience, cat. 3006). […]

[1] = second compound 0.0316 µM, first compound 0.0316 µM
[2] = second compound 0.0316 µM, first compound 0.1 µM
[3] = second compound 0.0316 µM, first compound 0.316 µM
[4] = second compound 0.0316 µM, first compound 1 µM
[5] = second compound 0.1 µM, first compound 0.0316 µM
[6] = second compound 0.1 µM, first compound 0.1 µM
[7] = second compound 0.1 µM, first compound 0.316 µM
[8] = second compound 0.1 µM, first compound 1 µM
[9] = second compound 0.316 µM, first compound 0.0316 µM
[10] = second compound 0.316 µM, first compound 0.1 µM
[11] = second compound 0.316 µM, first compound 0.316 µM
[12] = second compound 0.316 µM, first compound 1 µM
[13] = second compound 1 µM, first compound 0.0316 µM
[14] = second compound 1 µM, first compound 0.1 µM
[15] = second compound 1 µM, first compound 0.316 µM
[16] = second compound 1 µM, first compound 1 µM
[17] = second compound 3.16 µM, first compound 0.0316 µM
[18] = second compound 3.16 µM, first compound 0.1 µM
[19] = second compound 3.16 µM, first compound 0.316 µM
[20] = second compound 3.16 µM, first compound 1 µM
[21] = second compound 10 µM, first compound 0.0316 µM
[22] = second compound 10 µM, first compound 0.1 µM
[23] = second compound 10 µM, first compound 0.316 µM
[24] = second compound 10 µM, first compound 1 µM

## CC(=O)OC12COC1CC(O)C1(C)C(=O)C(O)C3=C(C)C(OC(=O)C(O)C(NC(=O)OC(C)(C)C)c4ccccc4)CC(O)(C(OC(=O)c4ccccc4)C21)C3(C)C (centres undefined) + C#Cc1c(F)ccc2cc(O)cc(-c3ncc4c(N5CC6CCC(C5)N6)nc(OCC56CCCN5CC(F)C6)nc4c3F)c12
Second compound 0.0316 µM
  IC50: < 31.6 nM
Second compound 0.1 µM
  IC50: < 31.6 nM
Second compound 0.316 µM
  IC50: < 31.6 nM
Second compound 1 µM
  IC50: < 31.6 nM
Second compound 3.16 µM
  IC50: < 31.6 nM
Second compound 10 µM
  IC50: < 31.6 nM
[1]
  viability, T/C: 30.7%
[2]
  viability, T/C: 41.2%
[3]
  viability, T/C: 37.2%
[4]
  viability, T/C: 32.2%
Second compound 0.0316 µM, first compound 3.16 µM
  viability, T/C: 47.1%
Second compound 0.0316 µM, first compound 10 µM
  viability, T/C: 62.8%
[5]
  viability, T/C: 27.8%
[6]
  viability, T/C: 36.6%
[7]
  viability, T/C: 34.6%
[8]
  viability, T/C: 30.9%
Second compound 0.1 µM, first compound 3.16 µM
  viability, T/C: 56.1%
Second compound 0.1 µM, first compound 10 µM
  viability, T/C: 71.2%
[9]
  viability, T/C: 34.1%
[10]
  viability, T/C: 35.6%
[11]
  viability, T/C: 31.3%
[12]
  viability, T/C: 32%
Second compound 0.316 µM, first compound 3.16 µM
  viability, T/C: 46.1%
Second compound 0.316 µM, first compound 10 µM
  viability, T/C: 57.2%
[13]
  viability, T/C: 27.3%
[14]
  viability, T/C: 30.5%
[15]
  viability, T/C: 32%
[16]
  viability, T/C: 23.6%
Second compound 1 µM, first compound 3.16 µM
  viability, T/C: 36.4%
Second compound 1 µM, first compound 10 µM
  viability, T/C: 46.6%
[17]
  viability, T/C: 20.1%
[18]
  viability, T/C: 21.6%
[19]
  viability, T/C: 21.2%
[20]
  viability, T/C: 23.6%
Second compound 3.16 µM, first compound 3.16 µM
  viability, T/C: 25.6%
Second compound 3.16 µM, first compound 10 µM
  viability, T/C: 39%
[21]
  viability, T/C: 17.9%
[22]
  viability, T/C: 20.7%
[23]
  viability, T/C: 16.5%
[24]
  viability, T/C: 19.1%
Second compound 10 µM, first compound 3.16 µM
  viability, T/C: 23.1%
Second compound 10 µM, first compound 10 µM
  viability, T/C: 30.5%

## Nc1ccn(C2OC(CO)C(O)C2(F)F)c(=O)n1 (centres undefined) + C#Cc1c(F)ccc2cc(O)cc(-c3ncc4c(N5CC6CCC(C5)N6)nc(OCC56CCCN5CC(F)C6)nc4c3F)c12
Second compound 0.0316 µM
  IC50: 5.53 nM
Second compound 0.1 µM
  IC50: 5.82 nM
Second compound 0.316 µM
  IC50: 5.83 nM
Second compound 1 µM
  IC50: 4.97 nM
Second compound 3.16 µM
  IC50: < 3.16 nM
Second compound 10 µM
  IC50: < 3.16 nM
Second compound 0.0316 µM, first compound 0.00316 µM
  viability, T/C: 79.1%
Second compound 0.0316 µM, first compound 0.01 µM
  viability, T/C: 19.3%
[1]
  viability, T/C: 9.28%
[2]
  viability, T/C: 9.72%
[3]
  viability, T/C: 8.73%
[4]
  viability, T/C: 9.82%
Second compound 0.1 µM, first compound 0.00316 µM
  viability, T/C: 86.3%
Second compound 0.1 µM, first compound 0.01 µM
  viability, T/C: 17.8%
[5]
  viability, T/C: 8.54%
[6]
  viability, T/C: 7.52%
[7]
  viability, T/C: 10.5%
[8]
  viability, T/C: 8.63%
Second compound 0.316 µM, first compound 0.00316 µM
  viability, T/C: 88.8%
Second compound 0.316 µM, first compound 0.01 µM
  viability, T/C: 15.8%
[9]
  viability, T/C: 7.89%
[10]
  viability, T/C: 5.29%
[11]
  viability, T/C: 6.95%
[12]
  viability, T/C: 7.88%
Second compound 1 µM, first compound 0.00316 µM
  viability, T/C: 74.8%
Second compound 1 µM, first compound 0.01 µM
  viability, T/C: 12.1%
[13]
  viability, T/C: 4.25%
[14]
  viability, T/C: 5%
[15]
  viability, T/C: 5.26%
[16]
  viability, T/C: 7.16%
Second compound 3.16 µM, first compound 0.00316 µM
  viability, T/C: 45.2%
Second compound 3.16 µM, first compound 0.01 µM
  viability, T/C: 5.88%
[17]
  viability, T/C: 3.82%
[18]
  viability, T/C: 2.55%
[19]
  viability, T/C: 3.3%
[20]
  viability, T/C: 3.59%
Second compound 10 µM, first compound 0.00316 µM
  viability, T/C: 23.2%
Second compound 10 µM, first compound 0.01 µM
  viability, T/C: 5.01%
[21]
  viability, T/C: 4.01%
[22]
  viability, T/C: 2.92%
[23]
  viability, T/C: 3.19%
[24]
  viability, T/C: 3.79%
